Patent US5919782A, “Heterocyclic compounds having antidiabetic, hypolipidaemic, antihypertensive properties, process for their preparation and pharmaceutical compositions containing them” (Dr. Reddy's Research Foundation, priority 1996, dated 1999)
Structures can show the parent of a compound that is named as a salt.

How the values were obtained:
C57 BL/KsJ-db/db mice = test: blood sugar and triglycerides lowering activity in db/db mice; type: in vivo, mouse (male C57 BL/KsJ-db/db); details: for Reduction in Blood Glucose Level / Triglyceride Lowering: oral gavage daily for 6 days, db/db mice
Excerpt: Mutation in colonies of laboratory animals and different sensitivities to dietary regimens have made the development of animal models with non-insulin dependent diabetes associated with obesity and insulin resistance possible. Genetic models such as db/db and ob/ob (See Diabetes, (1982) 31(1): 1-6) in mice and fa/fa and zucker rats have been developed by the various laboratories for understanding the pathophysiology of disease and testing the efficacy of new antidiabetic compounds (Diabetes, (1983) 32: 830-838; Annu. Rep. Sankyo Res. Lab. (1994). 46: 1-57). The homozygous animals, C57 BL/KsJ-db/db mice developed by Jackson Laboratory, US, are obese, hyperglycemic, hyperinsulinemic and insulin resistant (J. Clin. Invest., (1990) 85: 962-967), whereas heterozygous are lean and normoglycemic. In db/db model, mice progressively develop insulinopenia with age, a feature commonly observed in late stages of human type II diabetes when blood sugar levels are insufficiently controlled. The state of pancreas and its course vary according to the models. Since this model resembles that of type II diabetes mellitus, the compounds of the present invention were tested for blood sugar and triglycerides lowering activities.
Male C57 BL/KsJ-db/db mice of 8 to 14 weeks age, having body weight range of 35 to 60 grams, procured from the Jackson Laboraotory, USA, were used in the experiment. The mice were provided with standard feed (National Institute of Nutrition, Hyderabad, India) and acidified water, ad libitum. The animals having more than 300 mg/dl blood sugar were used for testing. The number of animals in each group was 4.
The random blood sugar and triglyceride levels were measured by collecting blood (100 μl) through orbital sinus, using heparinised capillary in tubes containing EDTA which was centrifuged to obtain plasma. The plasma glucose and triglyceride levels were measured spectrometrically, by glucose oxidase and glycerol-3-PO4 oxidase/peroxidase enzyme (Dr. Reddy's Lab. Diagnostic Division Kits, Hyderabad, India) methods respectively. On 6th day the blood samples were collected one hour after administration of test compounds/vehicle for assessing the biological activity.
Test compounds were suspended on 0.25% carboxymethyl cellulose or water (for water soluble compounds) and administered to test group at a dose of 10 to 30 mg/kg through oral gavage daily for 6 days. The control group received vehicle (dose 10 ml/kg).
The blood sugar and triglycerides lowering activities of the test compound was calculated according to the formula: [formula] ZC=Zero day control group value DC=Zero day treated group value
TC=Control group value on test day
DT=Treated group value on the test day

rats = test: Subacute toxicity in rats; type: in vivo; details: 100 mg/kg orally
Procedure: Groups of 20 rats, consisting of 10 males and 10 females, weighing between 120 to 140 gm, received orally 100 mg/kg of compound of Example 6 for 28 days. The behavioral changes and body weights were monitored daily. The rats were sacrificed on the 29th day and blood was collected for hematological and biochemical estimations. All vital organs were examined both macroscopically and microscopically.

Structure (SMILES)	Reduction in Blood Glucose Level (C57 BL/KsJ-db/db mice; 10 mg/kg) [%]	Triglyceride Lowering (C57 BL/KsJ-db/db mice; 10 mg/kg) [%]	Reduction in Blood Glucose Level (C57 BL/KsJ-db/db mice; 30 mg/kg) [%]	Triglyceride Lowering (C57 BL/KsJ-db/db mice; 30 mg/kg) [%]	other results
O=C1NC(=O)C(=Cc2ccc(OC[C@@H]3CCCN3c3ccccn3)cc2)S1 [Example 6, 5-[4-[[1-(Pyridin-2-yl)-(2S)-pyrrolidin-2-yl]methoxy]phenylmethylene]thiazolidine-2,4-dione, maleic acid salt]	49	71			gross macroscopic and microscopic changes of heart, lungs, bone marrow, kidneys and spleen (rats; 28 days): No gross macroscopic and microscopic changes of heart, lungs, bone marrow, kidneys and spleen were observed; mortality (rats; 28 days): did not produce any mortality; Organ Weight, Heart (rats; 28 days, Control 0.59 ± 0.09): 0.61 ± 0.08 g; RBC (rats; 28 days, Control 7.33 ± 0.75): 7.08 ± 0.93 × 10^6 /mm^3; WBC (rats; 28 days, Control 8.08 ± 2.01): 9.19 ± 2.11 × 10^3 /mm^3; Hemoglobin (rats; 28 days, Control 15.18 ± 0.69): 14.88 ± 0.46 gm/dl; PVC (rats; 28 days, Control 52.06 ± 2.58): 52.21 ± 2.67%; hematological and biochemical parameters, deviations from control (rats; end of 28 days treatment): no significant deviations from the control were observed in hematological and biochemical parameters
O=C1NC(=O)C(=Cc2ccc(OC[C@@H]3CCCN3c3ccccn3)cc2)S1 [Example 7, 5-[4-[[1-(Pyridin-2-yl)-(2S)-pyrrolidin-2-yl]methoxy]phenylmethylene]thiazolidine-2,4-dione, hydrochloride salt]			67	43	
O=C1NC(=O)C(Cc2ccc(OC[C@@H]3CCCN3c3ccc4ccccc4n3)cc2)S1 (stereo partly drawn) [Example 12, 5-[4-[[1-(Quinolin-2-yl)-(2S)-pyrrolidin-2-yl]methoxy]phenylmethyl]thiazolidine-2,4-dione]			27	49	
Cc1cc(N2CCC[C@H]2COc2ccc(CC3SC(=O)NC3=O)cc2)nc2ccccc12 (stereo partly drawn) [Example 20, 5-[4-[[1-(Lepidin-2-yl)-(2S)-pyrrolidin-2-yl]methoxy]phenylmethyl]thiazolidine-2,4-dione, sodium salt]			30	62	
O=C1NC(=O)C(=Cc2ccc(O[C@H]3CCN(c4ccccn4)C3)cc2)S1 [Example 23, 5-[4-[1-(Pyridin-2-yl)-(3S)-pyrrolidin-3-yloxy]phenylmethylene]thiazolidine-2,4-dione, hydrochloride salt]	46	10			
O=C1NC(=O)C(Cc2ccc(OCC3CN(c4ccccn4)CCO3)cc2)S1 (stereo not drawn) [Example 27, 5-[4-[[4-(Pyridin-2-yl)morpholin-2yl]methoxy]phenylmethyl]thiazolidine-2,4-dione, sodium salt]	56	29			
Cc1c(C)c2c(c(C)c1O)CCC(C)(COc1ccc(CC3SC(=O)NC3=O)cc1)O2 (stereo not drawn) [Troglitazone, reference compound]					reduction in random blood sugar level (C57 BL/KsJ-db/db mice; 100 mg/kg daily dose, standard drug, on 6th day): 28%
